Source: USRE30241E, “Esters of 3-(hydroxy or hydroxymethyl)-4-hydroxyphenyl aminomethyl ketones” (Sterling Drug Inc., priority 1970, dated 1980)
Like-named read-outs stand apart in the source and are kept apart here.

Legend:
[1] = tested on: guinea pig bronchioles constricted by carbachol; assay: Bronchodilator Test Method II, in vitro perfused guinea pig lung
Procedure: In this method bronchodilator activity in vitro was determined by testing the effect of graded doses of the test compounds on guinea pig bronchioles constricted by carbachol, using the technique reported by Sollman and von Oettingen, Proc. Soc, Exp. Biol. Med., 25,692 (1928) as modified by Tainter, Pedden, and James, J. Pharm. Exp. Ther., 51, 371 (1934) and by Luduena, von Euler, Tullar, and Lands, Arch. intern. Pharmacol., III, 392 (1957).

[2] = tested on: carbachol- or histamine-induced bronchoconstriction; assay: Bronchodilator Test Method I, anesthetized dog, intraduodenal activity; format: in vivo; conditions: Canis lupus familiaris, read-out: Bronchodilation; for inhibition in vivo at 0.45 mg/kg: 450 mcg/kg (salt) intraduodenal; for inhibition in vivo at 0.032 mg/kg: 32 mcg/kg (salt) intraduodenal; for inhibition in vivo at 0.128 mg/kg: 128 mcg/kg (salt) intraduodenal; for inhibition in vivo at 0.038 mg/kg: 38 mcg/kg (salt) intraduodenal
Procedure: (§1) Male and female dogs weighing 9-18 kg. each were anesthetized with pentobarbital sodium (30 mg./kg. i.v.). Each animal, with thorax opened at the midsternum, was maintained under artificial ventilation using a constant volume pump (250 ml./stroke; 10 to 12 strokes per minute) attached to the tracheal cannula. The flow of air was controlled by a glass or plastic valve which closed and opened respectively on inflow and outflow of the air to and from the tracheal cannula. Bronchoconstriction and/or bronchodilatation were measured from changes in the basal airway pressure reflected by a transducer attached to the sidearm of the cannula relayed to a polygraph.
Control bronchoconstrictions were induced by intravenous injections of carbachol (choline chloride carbamate) in doses ranging from 4 to 6 micrograms per kilogram or histamine diphosphate in doses ranging from 35 to 45 micrograms per kilogram. In the majority of test animals, the above doses of constrictor agents produced a 100-200 percent increase in the normal airway pressure or amplitude.
Injections were repeated at 20-30 minutes.
In intraduodenal studies, in the dog prepared for bronchodilation measurements, the duodenal segment of the small intestine was made easily accessible through a small mid-line incision in the abdomen. The test solution was injected into the duodenum using a fine needle. Commencing 5 minutes after medication, the degree and duration of bronchodilation were tested by injecting a control dose of carbachol or histamine at intervals of 30-60 minutes until the recovery or near-recovery was apparent. In some dogs showing an early recovery, a reference drug was also tested in the same dog 1.5-2 hours after the first medicine.

[3] = tested on: carbachol- or histamine-induced bronchoconstriction; assay: Bronchodilator Test Method I, anesthetized dog, intravenous activity; format: in vivo; conditions: Canis lupus familiaris, read-out: Bronchodilatation; for inhibition in vivo at 0.008 mg/kg: 8 mcg/kg i.v.; for inhibition in vivo at 0.032 mg/kg: 32 mcg/kg i.v.; for inhibition in vivo at 0.128 mg/kg: 128 mcg/kg i.v.; for inhibition in vivo at 0.0012 mg/kg: 1.2 mcg/kg i.v.; for inhibition in vivo at 0.006 mg/kg: 6.0 mcg/kg i.v.
Procedure: Bronchodilator activity was tested in anesthetized dogs (Test Method I) and in vitro on the perfused guinea pig lung (Test Method II), using the following pharmacological test procedures
as §1
Control bronchoconstrictions were induced by intravenous injections of carbachol (choline chloride carbamate) in doses ranging from 4 to 6 micrograms per kilogram or histamine diphosphate in doses ranging from 35 to 45 micrograms per kilogram.
Solutions of the test compounds were prepared in distilled water or in saline (for infusion). […] These solutions were then tested for bronchodilator activity in three ways, viz. (1) by mixing a graded dose of test compound with the constant does of carbachol or histamine in a syringe and injecting the mixture into the femoral vein of the dog, (2) by producing the bronchoconstriction first and injecting the test compound at the time of maximum constriction, and (3) by injecting the test compound first followed by carbachol or histamine in 1-10 minutes. Injections were repeated at 20-30 minutes. Bronchodilator values were obtained by measuring the areas under the response polygraph tracings (the first 5 munite period) of carbachol or histamine controls and of the experimentals using a planimeter. Decrease in the area thus measured was expressed as a percent bronchodilatation in reference to the area of control carbachol or histamine constriction. The mean bronchodilatations (the reductions in constrictions) were plotted against the doses administered and the mean effective dose (ED50) was estimated in micrograms/kilogram from the does-response curves. Blood pressure recording was taken from the femoral artery using an arterial transducer relayed to a polygraph.

CC(C)C(=O)Oc1ccc(C(O)CNC(C)(C)C)cc1OC(=O)C(C)C.Cl (stereo not drawn) [Example 2, 3,4-bis(isobutyryloxy)-alpha-(tert-butylaminomethyl)benzyl alcohol hydrochloride]
ED50 ([1]; carbachol (Doryl) 1:5 million): 0.28 µg (base) | Duration, Mean ([1]; dose 0.5 mcg (base)): 9 ± 1.1 min

COc1ccc(C(=O)Oc2ccc(C(O)CNC(C)(C)C)cc2OC(=O)c2ccccc2)cc1 (stereo not drawn) [Example 143, 3-benzoyloxy-4-(p-anisoyloxy)-alpha-(tert-butylaminomethyl)benzyl alcohol]
ED50 ([1]; Doryl conc. 1:10 million): 1.53 µg (base) | Duration, Mean ([1]; dose 2 mcg (base), Doryl conc. 1:10 million): 29.2 ± 10.2 min

Cc1ccc(C(=O)Oc2ccc(C(O)CN)cc2OC(=O)c2ccc(C)cc2)cc1 (stereo not drawn) [Example 127, 3,4-bis(p-toluyloxy)-alpha-(aminomethyl)benzyl alcohol methanesulfonate]
inhibition in vivo at 0.45 mg/kg ([2]; 5 min, 5 min): 16% | inhibition in vivo at 0.45 mg/kg ([2]; 10 min, 10 min): 16% | inhibition in vivo at 0.45 mg/kg ([2]; 1 h, 60 min): 0% | inhibition in vivo at 0.45 mg/kg ([2]; […], after 90 min): 0%

Cc1ccc(C(=O)Oc2ccc(C(O)CNC(C)C)cc2OC(=O)c2ccc(C)cc2)cc1 (stereo not drawn) [Example 89, 3,4-bis(p-toluyloxy)-alpha-(isopropylaminomethyl)benzyl alcohol]
ED50 ([1]; carbachol (Doryl) 1:5 million): 6.4 µg (base) | Duration, Mean ([1]; dose 15 mcg (base)): 125 ± 31 min

CC(=O)OCc1cc(C(O)CNC(C)(C)C)ccc1OC(=O)C12CC3CC(CC(C3)C1)C2 (stereo not drawn) [Example 152, 3-(acetoxymethyl)-4-(1-adamantanecarbonyloxy)-alpha-(tert-butylaminomethyl)benzyl alcohol methanesulfonate]
inhibition in vivo at 0.032 mg/kg ([2]; 5 min, 5 min): 6% | inhibition in vivo at 0.128 mg/kg ([2]; 5 min, 5 min): 6% | inhibition in vivo at 0.032 mg/kg ([2]; 0.5 h, 30 min): 6% | inhibition in vivo at 0.128 mg/kg ([2]; 0.5 h, 30 min): 43% | inhibition in vivo at 0.032 mg/kg ([2]; 1 h, 60 min): 17% | inhibition in vivo at 0.128 mg/kg ([2]; 1 h, 60 min): 59% | inhibition in vivo at 0.032 mg/kg ([2]; 2 h, 120 min): 48% | inhibition in vivo at 0.128 mg/kg ([2]; 2 h, 120 min): 51% | inhibition in vivo at 0.032 mg/kg ([2]; 3 h, 180 min): 45% | inhibition in vivo at 0.128 mg/kg ([2]; 3 h, 180 min): 65% | inhibition in vivo at 0.032 mg/kg ([2]; 4 h, 240 min): 45% | inhibition in vivo at 0.128 mg/kg ([2]; 4 h, 240 min): 59% | inhibition in vivo at 0.032 mg/kg ([2]; 5 h, 300 min): 21% | inhibition in vivo at 0.128 mg/kg ([2]; 5 h, 300 min): 54% | inhibition in vivo at 0.008 mg/kg ([3]; 5 min, 5 min): 44% | inhibition in vivo at 0.032 mg/kg ([3]; 5 min, 5 min): 77% | inhibition in vivo at 0.128 mg/kg ([3]; 5 min, 5 min): 97% | inhibition in vivo at 0.008 mg/kg ([3]; 0.5 h, 30 min): 39% | inhibition in vivo at 0.032 mg/kg ([3]; 0.5 h, 30 min): 78% | inhibition in vivo at 0.128 mg/kg ([3]; 0.5 h, 30 min): 92% | inhibition in vivo at 0.008 mg/kg ([3]; 1 h, 60 min): 50% | inhibition in vivo at 0.032 mg/kg ([3]; 1 h, 60 min): 75% | inhibition in vivo at 0.128 mg/kg ([3]; 1 h, 60 min): 93% | inhibition in vivo at 0.008 mg/kg ([3]; 2 h, 120 min): 33% | inhibition in vivo at 0.032 mg/kg ([3]; 2 h, 120 min): 70% | inhibition in vivo at 0.128 mg/kg ([3]; 2 h, 120 min): 87% | inhibition in vivo at 0.008 mg/kg ([3]; 3 h, 180 min): 39% | inhibition in vivo at 0.032 mg/kg ([3]; 3 h, 180 min): 63% | inhibition in vivo at 0.128 mg/kg ([3]; 3 h, 180 min): 89% | inhibition in vivo at 0.008 mg/kg ([3]; 4 h, 240 min): 39% | inhibition in vivo at 0.032 mg/kg ([3]; 4 h, 240 min): 52% | inhibition in vivo at 0.128 mg/kg ([3]; 4 h, 240 min): 88% | inhibition in vivo at 0.008 mg/kg ([3]; 4.5 h, 270 min): 0% | inhibition in vivo at 0.032 mg/kg ([3]; 4.5 h, 270 min): 45% | inhibition in vivo at 0.128 mg/kg ([3]; 4.5 h, 270 min): 82%

CC(=O)Oc1ccc(C(O)CNC(C)(C)C)cc1OC(=O)c1ccc(C)cc1 (stereo not drawn) [Example 146, 3-(p-toluyloxy)-4-acetoxy-alpha-(tert-butylaminomethyl)benzyl alcohol methanesulfonate]
inhibition in vivo at 0.038 mg/kg ([2]; 5 min, 5 min): 60% | inhibition in vivo at 0.038 mg/kg ([2]; 0.5 h, 30 min): 39% | inhibition in vivo at 0.038 mg/kg ([2]; 1 h, 60 min): 39% | inhibition in vivo at 0.038 mg/kg ([2]; 2 h, 120 min): 26% | inhibition in vivo at 0.038 mg/kg ([2]; 3 h, 180 min): 33% | inhibition in vivo at 0.038 mg/kg ([2]; 4 h, 240 min): 24% | inhibition in vivo at 0.038 mg/kg ([2]; 5 h, 300 min): 13% | inhibition in vivo at 0.0012 mg/kg ([3]; 5 min, 5 min): 31% | inhibition in vivo at 0.006 mg/kg ([3]; 5 min, 5 min): 66% | inhibition in vivo at 0.0012 mg/kg ([3]; 0.5 h, 30 min): 38% | inhibition in vivo at 0.006 mg/kg ([3]; 0.5 h, 30 min): 57% | inhibition in vivo at 0.0012 mg/kg ([3]; 1 h, 60 min): 44% | inhibition in vivo at 0.006 mg/kg ([3]; 1 h, 60 min): 63% | inhibition in vivo at 0.0012 mg/kg ([3]; 3 h, 180 min): 20% | inhibition in vivo at 0.0012 mg/kg ([3]; 4 h, 240 min): 20%

CC(C)(C)NCC(O)c1ccc(OC(=O)C(C)(C)C)c(O)c1 (stereo not drawn) [Example 59, 3-hydroxy-4-(pivalyloxy)-alpha-(tert-butylaminomethyl)benzyl alcohol methanesulfonate]
ED50 ([1]; carbachol (Doryl) 1:5 million): 1.2 µg (base) | Duration, Mean ([1]; dose 3.2 mcg (base)): 25 ± 5.6 min

3,4-bis(p-toluyloxy)-alpha-[1-(tert-butylaminomethyl)propyl]benzyl alcohol hydrochloride [Example 144]
Duration, Mean ([1]; dose 500 mcg (base)): 83 ± 26.8 min
